Each structure is given as a SMILES string. Numbers after ± are expanded uncertainties.

The conditions of this series: 298.15 K, 101.33 kPa, Liquid; for viscosity: Capillary tube (Ostwald / Ubbelohde) method.

The term mass density denotes mass per unit of volume. What is called viscosity is the internal friction of a fluid under shear. As to `CCCCCl` [1-chlorobutane], the mass density is recorded as 880.69 ± 0.61 kg/m3 and the viscosity came to 0.4235 ± 0.0054 mPa·s.

On to `CC(C)CO` [2-methyl-1-propanol], for which the mass density was 797.77 ± 0.62 kg/m3 and the viscosity came out at 3.353 ± 0.027 mPa·s.

Regarding `CC(C)(C)O` [2-methylpropan-2-ol], the mass density worked out at 780.78 ± 0.65 kg/m3 and the viscosity worked out at 4.384 ± 0.038 mPa·s.

Turning to `CCCCCC` [hexane], the mass density is given as 655.07 ± 0.98 kg/m3 and the viscosity came to 0.2949 ± 0.0048 mPa·s.

(Values after the NIST ThermoML archive (doi:10.1021/je800048f).)
